The structures appear in SMILES notation. Where a name gives a salt, the structure may show the parent alone.

In the assay the target is T1, Drak2 (Homo sapiens, UniProt O94768).
T1 sequence (O94768 1-372): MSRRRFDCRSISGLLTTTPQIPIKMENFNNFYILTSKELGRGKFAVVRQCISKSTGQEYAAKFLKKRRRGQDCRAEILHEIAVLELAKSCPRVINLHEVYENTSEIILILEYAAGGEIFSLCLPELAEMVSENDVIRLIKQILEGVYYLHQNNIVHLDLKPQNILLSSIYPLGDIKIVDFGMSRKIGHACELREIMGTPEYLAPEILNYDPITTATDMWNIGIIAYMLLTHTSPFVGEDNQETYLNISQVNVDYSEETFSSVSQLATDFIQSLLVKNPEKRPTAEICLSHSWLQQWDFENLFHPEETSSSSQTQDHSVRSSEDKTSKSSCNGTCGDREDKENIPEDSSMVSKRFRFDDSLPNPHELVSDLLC
The experiment in a line: Drak2 activity test, ADP-Glo kinase assay (Promega). In kind it is biochemical. The following applies: inhibition of Drak2 kinase activity, 2 h room temperature, activity range classes, read-out: IC50_Drak2. In general terms: In ADP-Glo the light output rises with the ADP produced.
As for `COc1cc(-c2cncc(-c3cc(NC(=O)CC4CC(F)(F)C4)cs3)n2)ccc1C(=O)N(C)C1CC2(C1)CN(C)C2` (centres unmarked) [Example 202, 4-[6-(4-{[2-(3,3-difluorocyclobutyl)acetyl]amino}thiophen-2-yl)pyrazin-2-yl]-2-methoxy-N-methyl-N-(2-methyl-2-azaspiro [3.3]hept-6-yl) benzamide], the IC50 fell in the range of 11 to 100 nM.
As for `COc1cc(-c2cncc(-c3cc(NC(=O)C(C)(C)C4CC(F)(F)C4)cs3)n2)ccc1C(=O)N(C)C1CC2(C1)CN(C)C2` (centres unmarked) [Example 203, 4-[6-(4-{[2-(3,3-difluorocyclobutyl)-2-methylpropionyl]amino}thiophen-2-yl)pyrazin-2-yl]-2-methoxy-N-methyl-N-(2-methyl-2-azaspiro [3.3]hept-6-yl) benzamide], the IC50 is 11 to 100 nM.
For `COc1cc(-c2cncc(-c3cc(NC(=O)CC45CC(C4)C5)cs3)n2)ccc1C(=O)Nc1nnco1` [Example 204, 4-[6-(4-{[2-(bicyclo [1.1.1]penta-1-yl)acetyl]amino}thiophen-2-yl)pyrazin-2-yl]-2-methoxy-N-(1,3,4-oxadiazol-2-yl) benzamide] the value was 101 to 1000 nM.
For `COc1cc(-c2cncc(-c3cc(NC(=O)CC4CC(O)C4)cs3)n2)ccc1C(=O)N(C)C1CC2(C1)CN(C)C2` (centres unmarked) [Example 205, 4-(6-(4-(2-(3-hydroxycyclobutyl)acetylamino)thiophen-2-yl)pyrazin-2-yl)-2-methoxy-N-methyl-N-(2-methyl-2-azaspiro [3.3]heptane-6-yl) benzamide] the value was 11 to 100 nM.
For `COc1cc(-c2cncc(-c3cc(NC(=O)CC4CC(OC)C4)cs3)n2)ccc1C(=O)N(C)C1CC2(C1)CN(C)C2` (centres unmarked) [Example 206, 2-Methoxy-4-(6-(4-(2-(3-methoxycyclobutyl)acetylamino)thiophen-2-yl)pyrazin-2-yl)-N-methyl-N-(2-methyl-2-azaspiro [3.3]heptane-6-yl) benzamide] the value was 11 to 100 nM; for `COc1cc(-c2cncc(-c3cc(NC(=O)CC4CC(OCc5ccccc5)C4)cs3)n2)ccc1C(=O)N(C)C1CC2(C1)CN(C)C2` (centres unmarked) [Example 207, 4-(6-(4-(2-(3-(benzyloxy)cyclobutyl)acetylamino)thiophen-2-yl)pyrazin-2-yl)-2-methoxy-N-methyl-N-(2-methyl-2-azaspiro [3.3]heptane-6-yl) benzamide], 11 to 100 nM; for `COc1cc(-c2cncc(-c3cc(NC(=O)CC4CCC4)cs3)n2)ccc1-c1ncc2c(n1)CCN(Cc1ccccc1)C2` [Example 208, N-(5-(6-(4-(6-benzyl-5,6,7,8-tetrahydropyrido [4,3-d]pyrimidin-2-yl)-3-methoxyphenyl)pyrazin-2-yl)thiophen-3-yl)-2-cyclobutyl Acetamide], 101 to 1000 nM.
Take `O=C(CC1CCC1)Nc1csc(-c2cncc(-c3ccnc4[nH]ccc34)n2)c1` [Example 209, N-(5-(6-(1H-pyrrolo [2,3-b]pyridin-4-yl)pyrazin-2-yl)thiophen-3-yl)-2-cyclobutylacetamide]: the IC50 was 11 to 100 nM.
`CC(C)n1ccc2c(-c3cncc(-c4cc(NC(=O)CC5CCC5)cs4)n3)ccnc21` [Example 210, 2-Cyclobutyl-N-(5-{6-[1-(propyl-2-yl)pyrrolo [2,3-b]pyridin-4-yl]pyrazin-2-yl}thiophen-3-yl) acetamide]: the IC50 fell in the range of 101 to 1000 nM.
As for `O=C(CC1CCC1)Nc1csc(-c2cncc(-c3ccnc4c3ccn4Cc3ccccc3)n2)c1` [Example 211, N-{5-[6-(1-benzylpyrrolo [2,3-b]pyridin-4-yl)pyrazin-2-yl]thiophen-3-yl}-2-cyclobutyl Acetamide], the IC50 lay within 101 to 1000 nM.
With `O=C(CC1CCC1)Nc1csc(-c2cncc(-c3ccc4cnn(C5CC5)c4c3)n2)c1` [Example 212, 2-Cyclobutyl-N-{5-[6-(1-cyclopropylindazol-6-yl)pyrazin-2-yl]thiophen-3-yl}acetamide], the IC50 lay in the range of 101 to 1000 nM.
For `CC(C)n1ncc2ccc(-c3cncc(-c4cc(NC(=O)CC5CCC5)cs4)n3)cc21` [Example 213, 2-Cyclobutyl-N-(5-{6-[1-(propyl-2-yl)indazol-6-yl]pyrazin-2-yl}thiophen-3-yl) acetamide] the value was 101 to 1000 nM; for `CCCCC(=O)Nc1csc(-c2cncc(-c3ccc4c(c3)OCCN4C(=O)C3CCN(C)CC3)n2)c1` [Example 214, N-[5-(6-{4-[(1-methylhexahydropyridin-4-yl)carbonyl]-3,4-dihydro-2H-benzo [2,1-b] [1,4]oxazinan-7-yl}pyrazine-2-y)thiophene-3-yl] pentanamide], 11 to 100 nM; for `O=C(CC1CCC1)Nc1csc(-c2cncc(-c3ccnc4c3ccn4CC(F)(F)F)n2)c1` [Example 215, 2-Cyclobutyl-N-(5-{6-[1-(2,2,2-trifluoroethyl)pyrrolo [2,3-b]pyridin-4-yl]pyrazin-2-yl}thiophen-3-yl) acetamide], 101 to 1000 nM.
Next, `CCCCC(=O)Nc1csc(-c2cncc(-c3cn(C)nc3C)n2)c1` [Example 216, N-{5-[6-(1,3-dimethylpyrazol-4-yl)pyrazin-2-yl]thiophen-3-yl}pentanamide]: less than 10 nM.
For `CCCCC(=O)Nc1csc(-c2cncc(-c3cncs3)n2)c1` [Example 217, N-{5-[6-(1,3-thiazole-5-yl)pyrazin-2-yl]thiophen-3-yl} pentanamide] the value was 11 to 100 nM.
`CCCCC(=O)Nc1csc(-c2cncc(-c3ccc(CCO)s3)n2)c1` [Example 218, N-(5-{6-[5-(2-hydroxyethyl)thiophen-2-yl]pyrazin 2-yl}thiophen-3-yl) pentanamide]: the IC50 lay in the range of 11 to 100 nM.
Consider `CCCCC(=O)Nc1csc(-c2cncc(-c3cccs3)n2)c1` [Example 219, N-{5-[6-(thiophen-2-yl)pyrazin-2-yl]thiophen-3-yl}pentanamide], for which the IC50 lay within 11 to 100 nM.
`CCCCC(=O)Nc1csc(-c2cncc(-c3ccco3)n2)c1` [Example 220, N-{5-[6-(furyl-2-yl)pyrazin-2-yl]thiophen-3-yl}pentanamide]: the IC50 lay in the range of 101 to 1000 nM.
Regarding `CCCCC(=O)Nc1csc(-c2cncc(-c3ccc(OC)c(S(C)(=O)=O)c3)n2)c1` [Example 221], the IC50 was 101 to 1000 nM.
Next, `CCCCC(=O)Nc1csc(-c2cncc(-c3ccc(C(=O)OC)s3)n2)c1` [Example 222, methyl 5-(6-(4-pentamidothiophen-2-yl)pyrazin-2-yl) thiophen-2-carboxylate]: 101 to 1000 nM; `COc1cc(-c2cncc(-c3nc(NC(=O)CC4CCC4)cs3)n2)ccc1C(=O)N(C)C1CCN(C)CC1` [Example 223, 4-(6-{4-[(2-cyclobutylacetyl)amino]-1,3-thiazole-2-yl}pyrazin-2-yl)-2-methoxy-N-methyl-N-(1-methylhexahydropyridin-4-yl) benzamide]: 101 to 1000 nM.
Next, `Cn1ccc2c(-c3cncc(-c4cc(NC(=O)CC5CCC5)cs4)n3)ccnc21` [Example 224]: 101 to 1000 nM; `CCCCC(=O)Nc1csc(-c2cncc(-c3ccc(OC)c(OC)c3)n2)c1` [Example A1, N-(5-(6-(3,4-dimethoxyphenyl)pyrazin-2-yl)thiophen-3-yl)pentanamide]: 101 to 1000 nM.
In the case of `COc1ccc(-c2cncc(-c3cc(N)cs3)n2)cc1OC` [Example A2, 5-(6-(3,4-dimethoxyphenyl)pyrazin-2-yl)thiophen-3-amine hydrochloride], the IC50 is 1000 to 10000 nM.
For `COc1ccc(-c2cncc(-c3cc(NC(C)=O)cs3)n2)cc1OC` [Example A3, N-(5-(6-(3,4-dimethoxyphenyl)pyrazin-2-yl)thiophen-3-yl)acetamide] the value was 101 to 1000 nM; for `COc1ccc(-c2cncc(-c3cc(NC(=O)C(C)C)cs3)n2)cc1OC` [Example A4, N-(5-(6-(3,4-dimethoxyphenyl)pyrazin-2-yl)thiophen-3-yl)isobutyramide], 101 to 1000 nM; for `COc1ccc(-c2cncc(-c3cc(NC(=O)C(C)(C)C)cs3)n2)cc1OC` [Example A5, N-(5-(6-(3,4-dimethoxyphenyl)pyrazin-2-yl)thiophen-3-yl)pivalamide], 101 to 1000 nM.
Next, `COc1ccc(-c2cncc(-c3cc(NC(=O)C4CC4)cs3)n2)cc1OC` [Example A6, N-(5-(6-(3,4-dimethoxyphenyl)pyrazin-2-yl)thiophen-3-yl)cyclopropanecarboxamide]: 101 to 1000 nM; `COc1ccc(-c2cncc(-c3cc(NC(=O)C4CCC4)cs3)n2)cc1OC` [Example A7, N-(5-(6-(3,4-dimethoxyphenyl)pyrazin-2-yl)thiophen-3-yl)cyclobutanecarboxamide]: 101 to 1000 nM; `COc1ccc(-c2cncc(-c3cc(NC(=O)C4CCCC4)cs3)n2)cc1OC` [Example A8, N-(5-(6-(3,4-dimethoxyphenyl)pyrazin-2-yl)thiophen-3-yl)cyclopentanecarboxamide]: 101 to 1000 nM.
As to `COc1ccc(-c2cncc(-c3cc(NC(=O)C4CCCCC4)cs3)n2)cc1OC` [Example A9, N-(5-(6-(3,4-dimethoxyphenyl)pyrazin-2-yl)thiophen-3-yl)cyclohexanecarboxamide], the IC50 fell in the range of 101 to 1000 nM.
Next, `COc1ccc(-c2cncc(-c3cc(NC(=O)c4ccccc4)cs3)n2)cc1OC` [Example A10, N-(5-(6-(3,4-dimethoxyphenyl)pyrazin-2-yl)thiophen-3-yl)benzamide]: 1000 to 10000 nM.
As to `CCCCC(=O)Nc1csc(-c2nccc(-c3ccc(OC)c(OC)c3)n2)c1` [Example A11, N-(5-(4-(3,4-dimethoxyphenyl)pyrimidin-2-yl)thiophen-3-yl)pentanamide], the IC50 is more than 10000 nM.
For the compound `CCCCC(=O)Nc1csc(-c2cncc(-c3cccc(OC)c3OC)n2)c1` [Example A12, N-(5-(6-(2,3-dimethoxyphenyl)pyrazin-2-yl)thiophen-3-yl)pentanamide], the IC50 was 1000 to 10000 nM.

The values are drawn from patent US20240308992A1 (Biopolar Youtang(Guangdong) Pharmaceutical Co., Ltd., priority 2021, published 2024).
